Common to all, as to type: cell-based, human
Data set [1] concerns BBC cells including BT549, MDA-MB-468, MDA-MB-231, and MDA-MB-436. Briefly: Cell proliferation assay (crystal violet) upon doxycycline-induced shRNA. The conditions noted are these: knockdown induced with doxycycline 100 ng/ml; crystal violet staining six days after initial treatment. The protocol: (§1) Typically, breast cancer cells were seeded in 12-well plates (1-2×10^4) in 1 ml medium. On the next day, wells were added with 110 μl medium without or with 1 μg/ml doxycycline (to reach a final concentration of 100 ng/ml), which was repeated every two days. Six days after the initial treatment, cells were fixed with formaldehyde, and stained with crystal violet (0.05%, weight/volume), a chromatin-binding cytochemical stain. The plates were washed extensively, and imaged with a flatbed scanner. For quantification of the staining, 1 ml 10% acetic acid was added to each well to extract the dye. The absorbance was measured at 590 nm with 750 nm as a reference.

For data set [2], the system named is luminal cell lines, MCF7 and T47D. The description is as above. The note with it: knockdown induced with doxycycline 100 ng/ml. The procedure:
as §1

The next data set deals with caspases. As to the kind of experiment: MELK knockdown-induced cell death with pan-caspase inhibitor. The conditions noted are these: MDA-MB-468 cells with shMELK, doxycycline 4 days, last two days with 40 μM zVad-fmk.
Data set [3] has as its system FoxM1. As to the kind of experiment: MELK abundance after FoxM1 inhibition (immunoblotting). The protocol: Cells were lysed with RIPA buffer (25 mM Tris, pH 7.4, 150 mM NaCl, 1% Nonidet P-40, 0.5% sodium deoxycholate, and 0.1% sodium dodecyl sulfate) supplemented with protease inhibitors cocktail (Roche) and phosphatase inhibitors cocktail (Thermo Scientific). Cleared lysates were analyzed for protein concentration using BCA kit (Thermo Scientific). Equal amount of protein (10-20 μg) was resolved on 8% or 10% SDS-PAGE, and was subsequently transferred onto a nitrocellulose or polyvinylidene difluoride membrane (Amersham). The membrane was blocked with 5% non-fat milk and was then incubated with primary antibodies overnight at 4° C. After washing, the membrane was incubated with fluorophore-conjugated secondary antibodies for 1 h at room temperature. The membrane was then washed and scanned with an Odyssey Infrared scanner (Li-Cor Biosciences). Primary antibodies used in this study include anti MELK (Epitomics, #2916), anti-α-tubulin (Abcam), anti-cyclin B1 (Millipore), anti-Vinculin (Sigma), anti-FoxM1 (Santa Cruz), anti-β-tubulin, anti-phopho-Akt (S473), anti-phospho Akt (T308), anti-total Akt, anti-Flag, anti-cleaved PARP (Asp214), anti-cleaved Caspase 3, anti-AURKA, anti-AURKB, anti-p27 (all from Cell Signaling Technology). Secondary antibodies used were IRDye700-conjugated anti-rabbit IgG and IRDye800-conjugated anti-mouse IgG (Rockland).
A general note: A western blot detects proteins with antibodies after separation by electrophoresis.

Data set [4] deals with FoxM1. As to the kind of experiment: MELK transcription after FoxM1 inhibition (qRT-PCR). The conditions noted are these: cells treated for 16 h; quantitative PCR. The procedure:
Total RNA was extracted from cultured cells with RNeasy Mini kit (Qiagen), with the use of QIAshredder spin column for homogenization and an on-column DNase digestion. Two micrograms of the total RNA was reversely transcribed using a High Capacity RNA to-cDNA Kit (Applied Biosystems). cDNAs were analyzed quantitatively using Power SYBR Green PCR Master Mix (Applied Biosystems) on an ABI7300 Real-time PCR system. Cycling conditions were 95° C. for 15 min, 40 cycles of 15 s at 94° C., 30 s at 55° C. and 30 s at 72° C. Ct values were generated using the default analysis settings. ΔCT was defined as Ctgene of interest-Ctβactin. ΔΔCT was defined as ΔCttreated sample-Ctcontrol sample. Relative quantification (RQ) was calculated as 2^−ΔΔCT. Statistical analysis was performed by Student's test.
For orientation: Real-time PCR tracks product formation cycle by cycle.

“Also recorded” adds a separate entry of the source. Where a SMILES comes first, the peptide text is derived from it. The star is where a group is joined. Cbz = O=C(OCc1ccccc1)*; CH2F = FC*

In the case of “GGTGTGATACAGCCTACATAA (expressed or natural sequence; the letters are possibly those of the target site) [shMELK1, ID; NO: 3]”, the “growth of BBC cells upon induction of the shRNA” value in data set [1] was “strongly impaired the growth”. The “growth of luminal cell lines upon induction of the shRNA” value in data set [2] is on record as “protected from the induction of MELK silencing”.

As for `COC(=O)C[C@H](NC(=O)[C@H](C)NC(=O)[C@@H](NC(=O)OCc1ccccc1)C(C)C)C(=O)CF` [zVad, zVad-fmk] (Cbz-Val-Ala-Asp(OMe)-CH2F), in the data set with caspases, the “MELK knockdown-induced cell death” value is given as “significantly reduced MELK knockdown-induced cell death”.

Take “GCCTGAAAGAAACTCCAATTA (expressed or natural sequence; the letters are possibly those of the target site) [shMELK2, ID; NO: 4]”: the “growth of BBC cells upon induction of the shRNA” value in data set [1] was “strongly impaired the growth”. Also, the “growth of luminal cell lines upon induction of the shRNA” value in data set [2] is given as “protected from the induction of MELK silencing”.

As to “GAGAGCTGTTTGACTATATAA (expressed or natural sequence) [MELK sh-413, ID; NO: 1]”, in data set [1], the “growth of BBC cells upon induction of the shRNA” value was “strongly impaired the growth”. In addition, the “growth of luminal cell lines upon induction of the shRNA” value in data set [2] was “protected from the induction of MELK silencing”.

In the case of `C=C(NC(=O)C(=C)NC(=O)c1csc(C2=N[C@@H]3c4csc(n4)[C@H]4NC(=O)c5csc(n5)[C@H]([C@](C)(O)[C@@H](C)O)NC(=O)[C@H]5CSC(=N5)/C(=C/C)NC(=O)[C@H]([C@@H](C)O)NC(=O)c5csc(n5)[C@]3(CC2)NC(=O)[C@H](C)NC(=O)C(=C)NC(=O)[C@H](C)NC(=O)[C@H]([C@@H](C)CC)N[C@@H]2C=Cc3c([C@H](C)O)cc(nc3[C@H]2O)C(=O)O[C@@H]4C)n1)C(N)=O` [thiostrepton], the “abundance/expression of MELK protein” value with FoxM1 [3] (MDA-MB-231 cells, 10 μM thiostrepton vs vehicle (0.1% DMSO)) was “reduced the abundance of MELK; also recorded: downregulates the expression of MELK”. The “transcription of MELK” value in the data set with FoxM1 [4] is listed as “decreases the transcription of MELK”.

Take “GACTAAAGCTTCACTATAATG (expressed or natural sequence) [MELK sh-1805, ID; NO: 2]”: the “growth of BBC cells upon induction of the shRNA” value in data set [1] is recorded as “strongly impaired the growth”. For the same molecule, the “growth of luminal cell lines upon induction of the shRNA” value in data set [2] is recorded as “protected from the induction of MELK silencing”.

Turning to “ggaccacuuucccuacuuu [siRNA (SEQ ID NO: 31)]”, the “abundance/expression of MELK protein” value is given as “reduced the abundance of MELK” in the data set with FoxM1 [3] (siRNA transfection, lysates three days after transfection) and “suppresses MELK expression” in the data set with FoxM1 [3] (siRNA transfection, lysates three days after transfection, listed as siRNA targeting FoxM1).

The record behind these values is patent US9540619B2, “MELK regulation for the treatment of breast cancer” (NOVARTIS AG, priority 2013, dated 2017).
